Data on nine molecules can be found in patent US11339161B2, “Triazolo pyridines as modulators of gamma-secretase” (Boehringer Ingelheim International GmbH, priority 2017, dated 2022).

One test concerns the target CSF1R (FMS) (Homo sapiens, UniProt P07333). The test can be described thus: Z'-LYTE SelectScreen biochemical kinase assay CSF1R (FMS). The source says:
(§1) Thermo Fisher Scientific SelectScreen™ Biochemical Kinase Profiling Service Z′-LYTE™ Screening Protocol and Assay Conditions Assay Theory
(§2) The […] biochemical assay employs a fluorescence-based, coupled-enzyme format and is based on the differential sensitivity of phosphorylated and non-phosphorylated peptides to proteolytic cleavage. The peptide substrate is labeled with two fluorophores—one at each end—that make up a FRET pair. In the primary reaction, the kinase transfers the gamma-phosphate of ATP to a single tyrosine, serine or threonine residue in a synthetic FRET-peptide. In the secondary reaction, a site-specific protease recognizes and cleaves non-phosphorylated FRET-peptides. Phosphorylation of FRET-peptides suppresses cleavage by the Development Reagent. Cleavage disrupts FRET between the donor (i.e., coumarin) and acceptor (i.e., fluorescein) fluorophores on the FRET-peptide, whereas uncleaved, phosphorylated FRET-peptides maintain FRET. A ratiometric method, which calculates the ratio (Emission Ratio=Coumarin emission (445 nm)/Fluorescein emission (520 nm)) of donor emission to acceptor emission after excitation of the donor fluorophore at 400 nm, is used to quantitate reaction progress, as shown in the equation below. A significant benefit of this ratiometric method for quantitating reaction progress is the elimination of well-to-well variations in FRET-peptide concentration and signal intensities. As a result, the assay yields very high Z′-factor values (>0.7) at a low percent phosphorylation. Both cleaved and uncleaved FRET-peptides contribute to the fluorescence signals and therefore to the Emission Ratio. The extent of phosphorylation of the FRET-peptide can be calculated from the Emission Ratio. The Emission Ratio will remain low if the FRET-peptide is phosphorylated (i.e., no kinase inhibition) and will be high if the FRET-peptide is non-phosphorylated (i.e., kinase inhibition).
(§3) The Test Compounds are screened in 1% DMSO (final) in the well. For 10 point titrations, 3-fold serial dilutions are conducted from the starting concentration of the customer's choosing.
(§4) All Peptide/Kinase Mixtures are diluted to a 2× working concentration in the appropriate Kinase Buffer (see section Kinase Specific Assay Conditions for a complete description).
(§5) All ATP Solutions are diluted to a 4× working concentration in Kinase Buffer (50 mM HEPES pH 7.5, 0.01% BRIJ-35, 10 mM MgCl2, 1 mM EGTA). ATP Km apparent is previously determined using a Z″-LYTE assay.
(§6) The Development Reagent is diluted in Development Buffer (see section Kinase-Specific Assay Conditions—Direct and Cascade for a complete description).
(§7) Bar-coded Corning, low volume NBS, black 384-well plate (Corning Cat. #4514) • 1. 100 nL—100× Test Compound in 100% DMSO • 2. 2.4 μL—Kinase buffer • 3. 5 μL—2× Peptide/Kinase Mixture • 4. 2.5 μL—4×ATP Solution • 5. 30—second plate shake • 6. 60—minute Kinase Reaction incubation at room temperature • 7. 5 μL—Development Reagent Solution • 8. 30—second plate shake • 9. 60—minute Development Reaction incubation at room temperature • 10. Read on fluorescence plate reader and analyze the data Z′-LYTE Assay Controls
(§8) SelectScreen Kinase Profiling Service uses XLfit from IDBS. The dose response curve is curve fit to model number 205 (sigmoidal dose-response model).
The 2×CSF1R (FMS)/Tyr 01 mixture is prepared in 50 mM HEPES pH 7.5, 0.01% BRIJ-35, 10 mM MgCl2, 1 mM EGTA. The final 10 μL Kinase Reaction consists of 0.2-40 ng CSF1R (FMS) and 2 μM Tyr 01 in 50 mM HEPES pH 7.5, 0.01% BRIJ-35, 10 mM MgCl2, 1 mM EGTA. After the 1 hour Kinase Reaction incubation, 5 μL of a 1:256 dilution of Development Reagent B is added.

Another test addresses FGFR1 (Homo sapiens, UniProt P11362). The test can be described thus: Z'-LYTE SelectScreen biochemical kinase assay FGFR1.
Description: as §1, §2, §3, §4, §5, §6, §7, §8
The 2×FGFR1/Tyr 04 mixture is prepared in 50 mM HEPES pH 7.5, 0.01% BRIJ-35, 10 mM MgCl2, 4 mM MnCl2, 1 mM EGTA, 2 mM DTT. The final 10 μL Kinase Reaction consists of 0.44-2.45 ng FGFR1 and 2 μM Tyr 04 in 50 mM HEPES pH 7.5, 0.01% BRIJ-35, 10 mM MgCl2, 2 mM MnCl2, 1 mM EGTA, 1 mM DTT. After the 1 hour Kinase Reaction incubation, 5 μL of a 1:64 dilution of Development Reagent B is added.

A further test has as its target PDGFRA (PDGFR alpha) (Homo sapiens, UniProt P16234). The test can be described thus: Z'-LYTE SelectScreen biochemical kinase assay PDGFRA (PDGFR alpha).
Description: as §1, §2, §3, §4, §5, §6, §7, §8
The 2×PDGFRA (PDGFR alpha)/Tyr 04 mixture is prepared in 50 mM HEPES pH 7.5, 0.01% BRIJ-35, 10 mM MgCl2, 4 mM MnCl2, 1 mM EGTA, 2 mM DTT. The final 10 μL Kinase Reaction consists of 1.54-22.6 ng PDGFRA (PDGFR alpha) and 2 μM Tyr 04 in 50 mM HEPES pH 7.5, 0.01% BRIJ-35, 10 mM MgCl2, 2 mM MnCl2, 1 mM EGTA, 1 mM DTT. After the 1 hour Kinase Reaction incubation, 5 μL of a 1:64 dilution of Development Reagent B is added.

In another test the target is RPS6KB1 (p70S6K) (Homo sapiens, UniProt P23443). Nature of the test: Z'-LYTE SelectScreen biochemical kinase assay RPS6KB1 (p70S6K).
Description: as §1, §2, §3, §4, §5, §6, §7, §8
The 2×RPS6 KB1 (p70S6K)/Ser/Thr 07 mixture is prepared in 50 mM HEPES pH 7.5, 0.01% BRIJ-35, 10 mM MgCl2, 1 mM EGTA. The final 10 μL Kinase Reaction consists of 2.87-17.7 ng RPS6 KB1 (p70S6K) and 2 μM Ser/Thr 07 in 50 mM HEPES pH 7.5, 0.01% BRIJ-35, 10 mM MgCl2, 1 mM EGTA. After the 1 hour Kinase Reaction incubation, 5 μL of a 1:45000 dilution of Development Reagent A is added.

Where [1] appears, read: 10 μmolar compound concentration, ATP at Km app, read-out: CSF1R (FMS) inhibition.
Setting [2] is: read-out: % Inhibition mean CSF1R (FMS).
[3] abbreviates: 10 μmolar compound concentration, ATP at Km app, read-out: FGFR1 inhibition.
Where [4] appears, read: read-out: % Inhibition mean FGFR1.
The mark [5] stands for this setting: 10 μmolar compound concentration, ATP at Km app, read-out: PDGFRA (PDGFR alpha) inhibition.
Setting [6] is: read-out: % Inhibition mean PDGFRA (PDGFR alpha).
Where [7] appears, read: 10 μmolar compound concentration, ATP at Km app, read-out: RPS6KB1 (p70S6K) inhibition.
The mark [8] stands for this setting: read-out: % Inhibition mean RPS6KB1 (p70S6K).

Like-named read-outs stand apart in the source and are kept apart here. A value given as a limit tells only on which side of the number the result lay.

CSF1R (FMS), sequence (P07333 20-972): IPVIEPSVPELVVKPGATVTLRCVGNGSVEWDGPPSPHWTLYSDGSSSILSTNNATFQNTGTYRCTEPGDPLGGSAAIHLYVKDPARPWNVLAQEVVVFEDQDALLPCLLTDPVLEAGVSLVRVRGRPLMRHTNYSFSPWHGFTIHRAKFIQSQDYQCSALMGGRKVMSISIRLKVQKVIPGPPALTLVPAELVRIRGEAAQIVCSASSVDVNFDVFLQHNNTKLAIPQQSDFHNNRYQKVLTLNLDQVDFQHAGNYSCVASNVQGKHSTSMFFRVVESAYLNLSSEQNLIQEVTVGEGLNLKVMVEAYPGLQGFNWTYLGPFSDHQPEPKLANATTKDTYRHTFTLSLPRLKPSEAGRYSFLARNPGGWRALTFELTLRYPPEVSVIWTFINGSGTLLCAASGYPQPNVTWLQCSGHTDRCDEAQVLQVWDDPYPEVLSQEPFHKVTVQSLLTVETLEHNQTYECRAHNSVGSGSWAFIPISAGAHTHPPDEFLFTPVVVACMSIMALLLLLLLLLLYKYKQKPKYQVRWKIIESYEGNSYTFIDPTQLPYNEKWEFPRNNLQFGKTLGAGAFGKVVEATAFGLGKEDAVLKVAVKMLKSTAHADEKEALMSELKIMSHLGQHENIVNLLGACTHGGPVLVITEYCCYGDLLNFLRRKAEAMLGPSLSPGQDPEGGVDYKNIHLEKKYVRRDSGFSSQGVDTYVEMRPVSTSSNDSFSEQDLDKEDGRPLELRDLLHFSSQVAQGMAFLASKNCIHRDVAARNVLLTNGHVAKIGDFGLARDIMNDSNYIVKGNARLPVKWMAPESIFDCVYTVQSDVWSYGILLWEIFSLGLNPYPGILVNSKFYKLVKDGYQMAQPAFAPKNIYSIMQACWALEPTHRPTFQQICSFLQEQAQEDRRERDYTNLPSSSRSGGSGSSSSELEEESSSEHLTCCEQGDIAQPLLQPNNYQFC
PDGFRA (PDGFR alpha), sequence (P16234 24-1089): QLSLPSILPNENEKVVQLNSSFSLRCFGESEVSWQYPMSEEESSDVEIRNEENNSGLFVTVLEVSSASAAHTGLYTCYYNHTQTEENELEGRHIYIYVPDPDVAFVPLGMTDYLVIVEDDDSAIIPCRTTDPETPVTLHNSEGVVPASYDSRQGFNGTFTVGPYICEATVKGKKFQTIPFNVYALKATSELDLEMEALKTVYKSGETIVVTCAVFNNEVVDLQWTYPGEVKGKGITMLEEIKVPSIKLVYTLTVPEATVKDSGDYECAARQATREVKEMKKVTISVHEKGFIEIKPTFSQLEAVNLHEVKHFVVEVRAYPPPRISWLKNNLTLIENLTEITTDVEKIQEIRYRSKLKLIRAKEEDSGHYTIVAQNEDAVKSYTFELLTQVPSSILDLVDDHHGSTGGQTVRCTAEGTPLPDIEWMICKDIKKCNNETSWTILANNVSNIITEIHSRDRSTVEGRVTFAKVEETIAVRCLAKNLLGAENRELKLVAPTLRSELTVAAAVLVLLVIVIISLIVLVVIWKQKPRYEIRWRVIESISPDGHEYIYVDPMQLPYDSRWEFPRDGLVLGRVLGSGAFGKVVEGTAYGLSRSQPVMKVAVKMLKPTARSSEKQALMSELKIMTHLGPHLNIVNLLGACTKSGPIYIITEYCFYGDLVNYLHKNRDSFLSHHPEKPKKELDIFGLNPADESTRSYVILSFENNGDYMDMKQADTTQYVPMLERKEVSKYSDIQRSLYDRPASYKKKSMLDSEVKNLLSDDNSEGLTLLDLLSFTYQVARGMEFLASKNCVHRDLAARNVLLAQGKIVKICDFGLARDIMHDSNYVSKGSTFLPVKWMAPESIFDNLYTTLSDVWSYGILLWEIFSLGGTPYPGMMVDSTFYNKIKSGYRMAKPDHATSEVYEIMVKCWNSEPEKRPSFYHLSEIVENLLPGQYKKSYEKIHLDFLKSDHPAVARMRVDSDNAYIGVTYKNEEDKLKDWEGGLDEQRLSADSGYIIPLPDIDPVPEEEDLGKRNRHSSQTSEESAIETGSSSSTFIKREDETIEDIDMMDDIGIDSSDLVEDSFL
FGFR1, sequence (P11362 22-822): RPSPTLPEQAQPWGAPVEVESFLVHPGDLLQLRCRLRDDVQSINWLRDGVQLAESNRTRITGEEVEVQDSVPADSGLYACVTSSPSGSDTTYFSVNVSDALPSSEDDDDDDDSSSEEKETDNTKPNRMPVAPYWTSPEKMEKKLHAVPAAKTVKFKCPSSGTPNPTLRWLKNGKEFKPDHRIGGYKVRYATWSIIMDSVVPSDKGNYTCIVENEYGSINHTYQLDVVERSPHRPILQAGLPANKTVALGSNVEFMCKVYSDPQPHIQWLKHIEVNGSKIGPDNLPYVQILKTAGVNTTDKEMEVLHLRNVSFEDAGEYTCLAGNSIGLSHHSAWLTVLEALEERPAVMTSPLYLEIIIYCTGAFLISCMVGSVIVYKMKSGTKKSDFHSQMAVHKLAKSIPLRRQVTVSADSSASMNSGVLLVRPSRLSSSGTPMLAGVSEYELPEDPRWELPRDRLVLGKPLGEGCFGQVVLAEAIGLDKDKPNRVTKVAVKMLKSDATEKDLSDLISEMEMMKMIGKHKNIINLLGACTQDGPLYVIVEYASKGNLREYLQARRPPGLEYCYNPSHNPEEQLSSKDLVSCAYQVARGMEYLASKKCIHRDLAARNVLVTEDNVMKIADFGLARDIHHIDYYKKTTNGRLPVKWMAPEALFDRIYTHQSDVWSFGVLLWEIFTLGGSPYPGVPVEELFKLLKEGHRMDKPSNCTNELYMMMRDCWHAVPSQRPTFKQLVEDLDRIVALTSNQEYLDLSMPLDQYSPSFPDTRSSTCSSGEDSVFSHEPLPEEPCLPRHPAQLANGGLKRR
RPS6KB1 (p70S6K), sequence (P23443 whole entry): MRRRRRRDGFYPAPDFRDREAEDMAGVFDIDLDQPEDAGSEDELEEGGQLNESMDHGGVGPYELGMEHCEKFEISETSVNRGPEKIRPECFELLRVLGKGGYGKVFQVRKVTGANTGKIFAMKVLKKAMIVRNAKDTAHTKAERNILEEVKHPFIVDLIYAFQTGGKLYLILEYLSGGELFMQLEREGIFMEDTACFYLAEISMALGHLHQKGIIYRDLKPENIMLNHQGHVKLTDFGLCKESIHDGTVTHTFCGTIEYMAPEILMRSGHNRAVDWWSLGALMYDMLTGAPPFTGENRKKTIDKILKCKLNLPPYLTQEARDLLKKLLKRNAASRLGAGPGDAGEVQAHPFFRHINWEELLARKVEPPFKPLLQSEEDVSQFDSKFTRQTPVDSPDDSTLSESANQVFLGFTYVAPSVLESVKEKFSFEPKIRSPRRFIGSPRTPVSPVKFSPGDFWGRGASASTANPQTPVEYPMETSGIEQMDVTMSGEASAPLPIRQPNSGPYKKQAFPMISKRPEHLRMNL

As for `Cc1cc(F)ccc1-c1cccn2nc(NC3CCc4c(cnn4CC(C)C)C3)nc12` (stereo not drawn) [Example 45, [8-(4-fluoro-2-methyl-phenyl)-[1,2,4]triazolo[1,5-a]pyridine-2-yl]-(1-isobutyl-4,5,6,7-tetrahydro-1H-indazol-5-yl)-amine], the inhibition (usually the percentage by which the read-out fell short of the control) at 10 µM at CSF1R (FMS) (setting [1]) is 40 to 80%; on CSF1R (FMS) (setting [2]), 40%; on FGFR1 (setting [3]) it was under 40%; on FGFR1 (setting [4]), 9%; at PDGFRA (PDGFR alpha) (setting [5]) it was under 40%; on PDGFRA (PDGFR alpha) (setting [6]) it was 30%. Moreover, the inhibition at 10 µM at RPS6KB1 (p70S6K) (setting [7]) is under 40%; at RPS6KB1 (p70S6K) (setting [8]), 7%.

For `CCn1ncc2c1CC[C@H](Nc1nc3c(-c4ccc(F)c(Cl)c4)cccn3n1)C2` [Example S-61, (S)-[8-(3-Chloro-4-fluoro-phenyl)-[1,2,4]triazolo[1,5-a]pyridine-2-yl]-(1-ethyl-4,5,6,7-tetrahydro-1H-indazol-5-yl)-amine], the inhibition at 10 µM was under 40% on CSF1R (FMS) (setting [1]); 18% at CSF1R (FMS) (setting [2]); under 40% at FGFR1 (setting [3]); 13% at FGFR1 (setting [4]); under 40% at PDGFRA (PDGFR alpha) (setting [5]); 13% on PDGFRA (PDGFR alpha) (setting [6]). In addition, the results for the inhibition at 10 µM on RPS6KB1 (p70S6K) (setting [7]) and on RPS6KB1 (p70S6K) (setting [8]) were under 40% and 22%, respectively.

Turning to `CCn1ncc2c1CCC(Nc1nc3c(-c4cccc(Cl)c4)cccn3n1)C2` (stereo not drawn) [Example 59, [8-(3-Chloro-phenyl)-[1,2,4]triazolo[1,5-a]pyridine-2-yl]-(1-ethyl-4,5,6,7-tetrahydro-1H-indazol-5-yl)-amine], the inhibition at 10 µM at CSF1R (FMS) (setting [1]) is 40 to 80%; at CSF1R (FMS) (setting [2]), 42%; on FGFR1 (setting [3]), under 40%; at FGFR1 (setting [4]) it was 22%; on PDGFRA (PDGFR alpha) (setting [5]) it was under 40%; at PDGFRA (PDGFR alpha) (setting [6]), 5%. Also, the values for the inhibition at 10 µM on RPS6KB1 (p70S6K) (setting [7]) and on RPS6KB1 (p70S6K) (setting [8]) were under 40% and 6%, respectively.

For `Cc1cc(F)ccc1-c1cccn2nc(Nc3ccc4c(cnn4C)c3)nc12` [Example 9, [8-(4-fluoro-2-methyl-phenyl)-[1,2,4]triazolo[1,5-a]pyridine-2-yl]-(1-methyl-1H-indazol-5-yl)-amine], the inhibition at 10 µM is over 80% on CSF1R (FMS) (setting [1]); 82% on CSF1R (FMS) (setting [2]); under 40% at FGFR1 (setting [3]); 35% on FGFR1 (setting [4]); 40 to 80% at PDGFRA (PDGFR alpha) (setting [5]); 59% at PDGFRA (PDGFR alpha) (setting [6]). The inhibition at 10 µM was under 40% at RPS6KB1 (p70S6K) (setting [7]) and 3% on RPS6KB1 (p70S6K) (setting [8]).

Consider `CCn1ncc2c1CCC(Nc1nc3c(-c4ccccc4C)cccn3n1)C2` (stereo not drawn) [Example 56, (1-Ethyl-4,5,6,7-tetrahydro-1H-indazol-5-yl)-[8-(2-methyl-phenyl)-[1,2,4]triazolo[1,5-a]pyridine-2-yl]-amine], for which the inhibition at 10 µM on CSF1R (FMS) (setting [1]) was 40 to 80%; on CSF1R (FMS) (setting [2]) it was 58%; on FGFR1 (setting [3]), under 40%; at FGFR1 (setting [4]) it was 20%; on PDGFRA (PDGFR alpha) (setting [5]) it was under 40%; on PDGFRA (PDGFR alpha) (setting [6]), 21%. The inhibition at 10 µM is under 40% on RPS6KB1 (p70S6K) (setting [7]) and 1% on RPS6KB1 (p70S6K) (setting [8]).

Take `CCn1ncc2c1CCC(Nc1nc3c(-c4cncc(Cl)c4)cccn3n1)C2` (stereo not drawn) [Example 73, [8-(5-Chloro-pyridin-3-yl)-[1,2,4]triazolo[1,5-a]pyridine-2-yl]-(1-ethyl-4,5,6,7-tetrahydro-1H-indazol-5-yl)-amine]: the inhibition at 10 µM at CSF1R (FMS) (setting [1]) was 40 to 80%; at CSF1R (FMS) (setting [2]), 79%; on FGFR1 (setting [3]) it was under 40%; on FGFR1 (setting [4]), 32%; at PDGFRA (PDGFR alpha) (setting [5]), under 40%; at PDGFRA (PDGFR alpha) (setting [6]), 23%. The inhibition at 10 µM at RPS6KB1 (p70S6K) (setting [7]) is under 40%; at RPS6KB1 (p70S6K) (setting [8]), 24%.

Regarding `CCn1ncc2c1CC[C@@H](Nc1nc3c(-c4ccc(F)cc4C)cccn3n1)C2` [Example R-42, (R)-(1-Ethyl-4,5,6,7-tetrahydro-1H-indazol-5-yl)-[8-(4-fluoro-2-methyl-phenyl)-[1,2,4]triazolo[1,5-a]pyridine-2-yl]-amine], the inhibition at 10 µM was under 40% at CSF1R (FMS) (setting [1]); 31% on CSF1R (FMS) (setting [2]); under 40% on FGFR1 (setting [3]); 16% at FGFR1 (setting [4]); under 40% on PDGFRA (PDGFR alpha) (setting [5]); 18% on PDGFRA (PDGFR alpha) (setting [6]). Moreover, the inhibition at 10 µM on RPS6KB1 (p70S6K) (setting [7]) is under 40%; on RPS6KB1 (p70S6K) (setting [8]), 22%.

For `Cc1cc(F)ccc1-c1cccn2nc(NC3CCc4c(cnn4C)C3)nc12` (stereo not drawn) [Example 10, [8-(4-fluoro-2-methyl-phenyl)-[1,2,4]triazolo[1,5-a]pyridine-2-yl]-(1-methyl-4,5,6,7-tetrahydro-1H-indazol-5-yl)-amine], the inhibition at 10 µM was 40 to 80% at CSF1R (FMS) (setting [1]); 42% at CSF1R (FMS) (setting [2]); under 40% on FGFR1 (setting [3]); 15% on FGFR1 (setting [4]); under 40% on PDGFRA (PDGFR alpha) (setting [5]); 8% on PDGFRA (PDGFR alpha) (setting [6]). The inhibition at 10 µM is under 40% at RPS6KB1 (p70S6K) (setting [7]) and 2% on RPS6KB1 (p70S6K) (setting [8]).

As to `CCn1ncc2c1CC[C@@H](Nc1nc3c(-c4ccc(F)c(Cl)c4)cccn3n1)C2` [Example R-61, (R)-[8-(3-Chloro-4-fluoro-phenyl)-[1,2,4]triazolo[1,5-a]pyridine-2-yl]-(1-ethyl-4,5,6,7-tetrahydro-1H-indazol-5-yl)-amine], the inhibition at 10 µM on CSF1R (FMS) (setting [1]) was under 40%; at CSF1R (FMS) (setting [2]), 18%; at FGFR1 (setting [3]), under 40%; at FGFR1 (setting [4]) it was 15%; on PDGFRA (PDGFR alpha) (setting [5]), under 40%; on PDGFRA (PDGFR alpha) (setting [6]), 18%. Further, the inhibition at 10 µM at RPS6KB1 (p70S6K) (setting [7]) is under 40%; at RPS6KB1 (p70S6K) (setting [8]), 3%.
